Values quoted from earlier work, collected in patent US20090148519A1, “PULSED-RELEASE PREPARATION HAVING IMPROVED DISINTEGRATION PROPERTIES IN VIVO” (priority 2005, published 2009).

SMILES	half-life at pH 7
COc1ccnc(C[S+]([O-])c2nc3cc(OC(F)F)ccc3[nH]2)c1OC (centres unmarked) [pantoprazole]	39 hours
COCCCOc1ccnc(C[S+]([O-])c2nc3ccccc3[nH]2)c1C (centres unmarked) [rabeprazole]	30 minutes
